Results as given in patent US20180235931A1, “USE OF NEUROKININ-1 ANTAGONISTS AS ANTITUSSIVES” (Menlo Therapeutics Inc., priority 2017, published 2018).

Assays:
[1] = cited from earlier work
[2] = In vitro skin permeation, Franz diffusion cell; type: in vitro ADME; conditions: topical formulations B and C on human skin, 37 C, LC-MS/MS
Protocol: In vitro skin permeation of serlopitant in topical formulations A-D was evaluated using a Franz diffusion cell. FIG. 1 illustrates a Franz diffusion cell. A Franz diffusion cell having a circular permeation area of 4.15 cm^2 and a receptor chamber volume of 19 mL was set up with a thermo-regulated outer water jacket to maintain the temperature at 37° C. The receptor chamber was filled with 19 mL 1×PBS (pH 7.5) containing 10% ethanol and 1% Tween® 80.
Human skin was pre-treated to remove all subcutaneous fat and was cleaned with 70% ethanol before use. The skin was visually inspected to ensure that it was free of any surface irregularity or small holes and was equally divided into four pieces. The skin was then mounted onto the receptor chamber with the stratum corneum side facing up. About 100 mg of topical formulation A, B, C or D was applied to the skin (actual weight: A, 103.8 mg; B, 101.3 mg; C, 103.2 mg; and D, 103.8 mg), which was then covered with parafilm to avoid evaporation. […]
All samples were processed by solid-phase extraction (SPE) before LC-MS/MS analysis. […] Serlopitant concentrations in samples resulting from formulations A-D were determined by comparison to the standard. Serlopitant was not detected in samples resulting from topical formulations A and D, as expected. […] After an initial lag, serlopitant was detected by LC-MS/MS in the receptor chamber at 6 hours.

[3] = Solubility test of serlopitant in Franz cell receptor solution; type: physicochemical

Row | Structure (SMILES) | hygroscopicity ([1]; all tested relative humidity conditions) | thermodynamic stability ([1]; below 70 C, Form I vs Form II) | time at which serlopitant was detected in the receptor chamber after initial lag [2] | solubility in receptor solution ([3]; 0.5, 5 and 50 ug/mL in 1xPBS (pH 7.5) containing 10% ethanol and 1% Tween 80, 1 hour at 37 C) | solubility if Tween 80 was not used ([3]; receptor solution without Tween 80) | solubility if ethanol was not used ([3]; receptor solution without ethanol)
1 | C[C@@H](O[C@H]1CC[C@@H]2CN(C3=CC(=O)CC3)C[C@H]2[C@@H]1c1ccc(F)cc1)c1cc(C(F)(F)F)cc(C(F)(F)F)c1 [Form I] | non-hygroscopic | thermodynamically more stable | – | – | – | –
2 | CC(O[C@H]1CC[C@@H]2CN(C3=CC(=O)CC3)C[C@H]2[C@@H]1c1ccc(F)cc1)c1cc(C(F)(F)F)cc(C(F)(F)F)c1 (stereo partly drawn) [serlopitant] | – | – | 6 h | remained soluble | decreased significantly | decreased slightly
